Reference: patent US7964607B2, “Pyrazolo[3,4-d]pyrimidine compounds” (Pfizer Inc., priority 2007, dated 2011)
Where two headings read alike, the source gives them in different places.

Target: T1, human recombinant PDE9 enzyme (Homo sapiens, UniProt O76083)
T1 construct: made in house; host or cells: SF-9 insect cells
Assay: Phosphodiesterase 9 (PDE9) inhibitory activity, Scintillation Proximity (SPA) assay
Assay type: biochemical
Method: Phosphodiesterase 9 (PDE9) Inhibitory Activity The PDE9 assay was performed using the Phosphodiesterase Scintillation Proximity (SPA) assay (GE Healthcare Life Sciences). […] The human recombinant PDE9 enzyme was generated in SF-9 cells, the cell pellets were sonicated in buffer (20 mM TRIS, 2 mM benzamidine, 1 mM EDTA, 250 mM sucrose, 100 μM PMSF, pH 7.5 with HCl), centrifuged at 40,000×g for 20 min at 4° C. The supernatants were stored at −80° C. […] Test compounds were dissolved in DMSO, diluted in DI H2O and serially diluted in 20% DMSO/80% H2O, for a final concentration of 2% DMSO. For the assay the PDE9 was diluted with assay buffer such that 20% or less of the substrate was hydrolyzed to 5′GMP. Each assay well contained 10 μl of test compound or solvent, 40 μl of [^3H]CGMP and 50 μl of enzyme, background was determined by a high concentration of a PDE inhibitor. The assay was initiated with the addition of the enzyme and carried out at room temperature for 30 min. […] The plates were sealed, vortexed, allowed to set for >300 min, then counted in a Wallac TriLux MicroBeta LSC.

[1] = human recombinant PDE9 from SF-9 cells, 50 nM [3H]cGMP, room temperature, 30 min, Examples 3-114, read-out: G5678A (U): IC50
[2] = human recombinant PDE9 from SF-9 cells, 50 nM [3H]cGMP, room temperature, 30 min, additional compounds Ex. 115-228, read-out: G5678A (U):IC50

T1 sequence (O76083 whole entry): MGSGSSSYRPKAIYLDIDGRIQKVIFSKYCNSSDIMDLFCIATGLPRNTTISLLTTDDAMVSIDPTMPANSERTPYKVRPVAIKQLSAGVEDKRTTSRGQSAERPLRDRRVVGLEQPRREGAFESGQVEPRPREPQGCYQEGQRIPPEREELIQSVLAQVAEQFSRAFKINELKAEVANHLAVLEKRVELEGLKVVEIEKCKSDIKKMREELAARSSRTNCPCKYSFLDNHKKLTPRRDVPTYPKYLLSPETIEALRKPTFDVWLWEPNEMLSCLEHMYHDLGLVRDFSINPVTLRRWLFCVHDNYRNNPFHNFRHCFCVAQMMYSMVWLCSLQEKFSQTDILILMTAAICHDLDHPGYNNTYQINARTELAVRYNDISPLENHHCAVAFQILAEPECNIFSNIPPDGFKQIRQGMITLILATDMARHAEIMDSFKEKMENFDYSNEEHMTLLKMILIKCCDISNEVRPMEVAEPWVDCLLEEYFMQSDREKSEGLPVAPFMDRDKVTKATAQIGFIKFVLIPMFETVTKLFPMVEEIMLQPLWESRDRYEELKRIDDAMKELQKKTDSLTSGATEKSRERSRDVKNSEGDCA

O=c1[nH]c([C@@H]2CN(Cc3ccccc3)C[C@H]2C(F)(F)F)nc2c1cnn2C1CCCC1 (racemic) [Example 35, 6-[(3,4-trans)-1-benzyl-4-(trifluoromethyl)pyrrolidin-3-yl]-1-cyclopentyl-1,5-dihydro-4H-pyrazolo[3,4-d]pyrimidin-4-one]
IC50 [1]: 53.8 nM

CC[C@@H]1CN(Cc2ccccc2)C[C@H]1c1nc2c(cnn2C(C)C)c(=O)[nH]1 (racemic) [Example 39, 6-[(3,4-trans)-1-benzyl-4-ethylpyrrolidin-3-yl]-1-isopropyl-1,5-dihydro-4H-pyrazolo[3,4-d]pyrimidin-4-one]
IC50 [1]: 58.1 nM

CC[C@@H]1CN(Cc2cnc3ccccc3c2)C[C@H]1c1nc2c(cnn2C(C)C)c(=O)[nH]1 (racemic) [Example 44, 6-[(3,4-trans)-4-ethyl-1-(quinolin-3-ylmethyl)pyrrolidin-3-yl]-1-isopropyl-1,5-dihydro-4-H-pyrazolo[3,4-d]pyrimidin-4-one]
IC50 [1]: 10.9 nM

CC[C@@H]1CN(Cc2ccc(OC)nc2)C[C@H]1c1nc2c(cnn2C(C)C)c(=O)[nH]1 (racemic) [Example 45, 6-{(3,4-trans)-4-ethyl-1-[(6-methoxypyridin-3-yl)methyl]pyrrolidin-3-yl}-1-isopropyl-1,5-dihydro-4H-pyrazolo[3,4-d]pyrimidin-4-one]
IC50 [1]: 38.7 nM

CC[C@@H]1CN(Cc2ccc3nccnc3c2)C[C@H]1c1nc2c(cnn2C(C)C)c(=O)[nH]1 (racemic) [Example 46, 6-[(3,4-trans)-4-ethyl-1-(quinoxalin-6-ylmethyl)pyrrolidin-3-yl]-1-isopropyl-1,5-dihydro-4H-pyrazolo[3,4-d]pyrimidin-4-one]
IC50 [1]: 8.53 nM

O=c1[nH]c([C@@H]2CN(Cc3ccc4nccnc4c3)C[C@H]2C(F)(F)F)nc2c1cnn2C1CCCC1 (racemic) [Example 52, 1-cyclopentyl-6-[(3,4-trans)-1-(quinoxalin-6-ylmethyl)-4-(trifluoromethyl)pyrrolidin-3-yl]-1,5-dihydro-4H-pyrazolo[3,4-d]pyrimidin-4-one]
IC50 [1]: 26 nM

Cc1cnc(CN2C[C@@H](c3nc4c(cnn4C4CCCC4)c(=O)[nH]3)[C@H](C3CC3)C2)cn1 (racemic) [Example 55, 1-cyclopentyl-6-{(3,4-trans)-4-cyclopropyl-1-[(5-methylpyrazin-2-yl)methyl]pyrrolidin-3-yl}-1,5-dihydro-4H-pyrazolo[3,4-d]pyrimidin-4-one]
IC50 [1]: 6.55 nM

O=c1[nH]c([C@@H]2CN(Cc3ccc4nccnc4c3)C[C@H]2C2CC2)nc2c1cnn2C1CCCC1 (racemic) [Example 56, 1-cyclopentyl-6-[(3,4-trans)-4-cyclopropyl-1-(quinoxalin-6-ylmethyl)pyrrolidin-3-yl]-1,5-dihydro-4H-pyrazolo[3,4-d]pyrimidin-4-one]
IC50 [1]: 4.81 nM

CN1C[C@@H](c2nc3c(cnn3C3CCCC3)c(=O)[nH]2)[C@H](C2CC2)C1 (racemic) [Example 57, 1-cyclopentyl-6-[(3,4-trans)-4-cyclopropyl-1-methylpyrrolidin-3-yl]-1,5-dihydro-4H-pyrazolo[3,4-d]pyrimidin-4-one]
IC50 [1]: 122 nM

CCn1ncc2c(=O)[nH]c([C@@H]3CN(Cc4ccccc4)C[C@H]3C)nc21 (racemic) [Example 58, 6-[(3,4-trans)-1-benzyl-4-methylpyrrolidin-3-yl]-1-ethyl-1,5-dihydro-4H-pyrazolo[3,4-d]pyrimidin-4-one]
IC50 [1]: 334 nM

C[C@@H]1CN(Cc2ccccc2)C[C@H]1c1nc2c(cnn2C2CCOCC2)c(=O)[nH]1 (racemic) [Example 60, 6-[(3,4-trans)-1-benzyl-4-methylpyrrolidin-3-yl]-1-(tetrahydro-2H-pyran-4-yl)-1,5-dihydro-4H-pyrazolo[3,4-d]pyrimidin-4-one]
IC50: 44.8 nM

O=c1[nH]c([C@@H]2CN(Cc3ccccc3)C[C@H]2CC(F)(F)F)nc2c1cnn2C1CCCC1 (racemic) [Example 62, 6-[(3,4-trans)-1-benzyl-4-(2,2,2-trifluoroethyl)pyrrolidin-3-yl]-1-cyclopentyl-1,5-dihydro-4H-pyrazolo[3,4-d]pyrimidin-4-one]
IC50 [1]: 520 nM

C[C@@H]1CN(Cc2ccccc2)C[C@H]1c1nc2c(cnn2C2CCC(F)(F)CC2)c(=O)[nH]1 (racemic) [Example 63, 6-[(3,4-trans)-1-benzyl-4-methylpyrrolidin-3-yl]-1-(4,4-difluorocyclohexyl)-1,5-dihydro-4H-pyrazolo[3,4-d]pyrimidin-4-one]
IC50 [1]: 123 nM

COc1ccc2nccc(CN3C[C@@H](C)[C@H](c4nc5c(cnn5C(C)C)c(=O)[nH]4)C3)c2n1 (racemic) [Example 69, 1-isopropyl-6-{(3,4-trans)-1-[(6-methoxy-1,5-naphthyridin-4-yl)methyl]-4-methylpyrrolidin-3-yl}-1,5-dihydro-4H-pyrazolo[3,4-d]pyrimidin-4-one]
IC50 [1]: 30.7 nM

CC(C)n1ncc2c(=O)[nH]c([C@@H]3CN(Cc4ccc5cccc(F)c5n4)C[C@H]3C)nc21 (racemic) [Example 70, 6-{(3,4-trans)-1-[(8-fluoroquinolin-2-yl)methyl]-4-methylpyrrolidin-3-yl}-1-isopropyl-1,5-dihydro-4H-pyrazolo[3,4-d]pyrimidin-4-one]
IC50 [1]: 10.2 nM

COc1ccc2nccc(CN3C[C@@H](C)[C@H](c4nc5c(cnn5C(C)C)c(=O)[nH]4)C3)c2c1 (racemic) [Example 71, 1-isopropyl-6-{(y)-1-[(6-methoxyquinolin-4-yl)methyl]-4-methylpyrrolidin-3-yl}-1,5-dihydro-4H-pyrazolo[3,4-d]pyrimidin-4-one]
IC50 [1]: 16.1 nM

C[C@@H]1CN(Cc2ccccc2)C[C@H]1c1nc2c(cnn2C2CCC2)c(=O)[nH]1 (racemic) [Example 72, 6-[(3,4-trans)-1-benzyl-4-methylpyrrolidin-3-yl]-1-cyclobutyl-1,5-dihydro-4H-pyrazolo[3,4-d]pyrimidin-4-one]
IC50 [1]: 40.1 nM

CC[C@@H]1CN(Cc2cnc(C)nc2)C[C@H]1c1nc2c(cnn2C2CCOCC2)c(=O)[nH]1 (racemic) [Example 74]
IC50 [1]: 6.14 nM

Cc1ncc(CN2C[C@@H](C)[C@H](c3nc4c(cnn4C4CCC4)c(=O)[nH]3)C2)cn1 (racemic) [Example 83, 1-cyclobutyl-6-{(3,4-trans)-4-methyl-1-[(2-methylpyrimidin-5-yl)methyl]pyrrolidin-3-yl}-1,5-dihydro-4H-pyrazolo[3,4-d]pyrimidin-4-one]
IC50 [1]: 24.5 nM

C[C@@H]1CN(Cc2cccc(-n3cccn3)c2)C[C@H]1c1nc2c(cnn2C2CCCC2)c(=O)[nH]1 (racemic) [Example 115, 1-cyclopentyl-6-{(3,4-trans)-4-methyl-1-[3-(1H-pyrazol-1-yl)benzyl]pyrrolidin-3-yl}-1,5-dihydro-4H-pyrazolo[3,4-d]pyrimidin-4-one]
IC50 [2]: 40.4 nM

Cc1cc(CN2C[C@@H](C)[C@H](c3nc4c(cnn4C4CCCC4)c(=O)[nH]3)C2)ccn1 (racemic) [Example 116, 1-cyclopentyl-6-{(3,4-trans)-4-methyl-1-[(2-methylpyridin-4-yl)methyl]pyrrolidin-3-yl}-1,5-dihydro-4H-pyrazolo[3,4-d]pyrimidin-4-one]
IC50 [2]: 34 nM

C[C@@H]1CN(Cc2c(F)cccc2Cl)C[C@H]1c1nc2c(cnn2C2CCCC2)c(=O)[nH]1 (racemic) [Example 117, 6-[(3,4-trans)-1-(2-chloro-6-fluorobenzyl)-4-methylpyrrolidin-3-yl]-1-cyclopentyl-1,5-dihydro-4H-pyrazolo[3,4-d]pyrimidin-4-one]
IC50 [2]: 126 nM
